Results from patent US20200354426A1 (MEDIMMUNE LIMITED, priority 2016, published 2020).
Read-outs that look alike come from different tables or passages of the source. Numbered stars: 1 amine (or outer) side, 2 acyl side, 3 side chain; on linkers, the order of the positions; unused ones are H or OH. Side chains are listed from the residue outwards. Peptide text beside a SMILES is read from it. * marks the point of attachment. γGlu = O=C(O)[C@H](CCC(=O)[*:2])N[*:1]; Palmitoyl = CCCCCCCCCCCCCCCC(=O)*; Ahx = NCCCCCC(=O)O; βAla = NCCC(=O)O

Key:
Experiment in all cases: cAMP activity assay in assay medium (assay 1)
Assay type in all cases: cell-based
Settings in all cases: Table 4
Human GLP1R = Human GLP1R (Homo sapiens, UniProt P43220); set-up: expressed in transfected cells
Human GLP1R, sequence (P43220 24-463): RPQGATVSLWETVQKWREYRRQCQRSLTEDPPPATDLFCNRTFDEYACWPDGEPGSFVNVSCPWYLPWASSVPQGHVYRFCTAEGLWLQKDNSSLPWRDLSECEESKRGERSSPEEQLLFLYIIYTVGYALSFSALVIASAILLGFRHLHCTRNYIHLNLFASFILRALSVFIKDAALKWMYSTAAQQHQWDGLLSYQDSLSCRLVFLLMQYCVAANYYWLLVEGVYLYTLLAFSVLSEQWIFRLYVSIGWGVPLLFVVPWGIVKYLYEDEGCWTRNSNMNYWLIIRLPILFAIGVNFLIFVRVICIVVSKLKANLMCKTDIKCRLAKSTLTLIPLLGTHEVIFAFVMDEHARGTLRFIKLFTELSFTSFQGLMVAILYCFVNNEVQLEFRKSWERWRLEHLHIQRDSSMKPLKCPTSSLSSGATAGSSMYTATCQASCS
From the text: (§1) Biological Activity of Peptides in Cell-Based cAMP Activity Assay (Assay 1):
(§2) All sample dilutions were made in duplicate.

Human GIPr = molecular target: T1, Human GIPr (Homo sapiens, UniProt P48546)
T1 construct: expressed in transfected cells
T1 sequence (P48546 22-466): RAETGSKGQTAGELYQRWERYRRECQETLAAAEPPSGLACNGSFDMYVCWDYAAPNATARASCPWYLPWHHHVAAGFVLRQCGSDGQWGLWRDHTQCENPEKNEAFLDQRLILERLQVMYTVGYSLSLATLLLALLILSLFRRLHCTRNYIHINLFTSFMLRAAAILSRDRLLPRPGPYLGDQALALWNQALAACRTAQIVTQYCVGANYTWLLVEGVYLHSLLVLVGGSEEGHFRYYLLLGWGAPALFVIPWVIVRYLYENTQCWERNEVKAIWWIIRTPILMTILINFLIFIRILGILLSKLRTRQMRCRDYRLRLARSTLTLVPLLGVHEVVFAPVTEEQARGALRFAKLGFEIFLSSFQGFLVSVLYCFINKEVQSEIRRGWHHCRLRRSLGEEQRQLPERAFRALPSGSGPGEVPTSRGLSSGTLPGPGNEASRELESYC
From the text: as §1, §2

Human GlucR = molecular target: T2, Human GlucR (Homo sapiens, UniProt P47871)
T2 construct: expressed in transfected cells
T2 sequence (P47871 26-477): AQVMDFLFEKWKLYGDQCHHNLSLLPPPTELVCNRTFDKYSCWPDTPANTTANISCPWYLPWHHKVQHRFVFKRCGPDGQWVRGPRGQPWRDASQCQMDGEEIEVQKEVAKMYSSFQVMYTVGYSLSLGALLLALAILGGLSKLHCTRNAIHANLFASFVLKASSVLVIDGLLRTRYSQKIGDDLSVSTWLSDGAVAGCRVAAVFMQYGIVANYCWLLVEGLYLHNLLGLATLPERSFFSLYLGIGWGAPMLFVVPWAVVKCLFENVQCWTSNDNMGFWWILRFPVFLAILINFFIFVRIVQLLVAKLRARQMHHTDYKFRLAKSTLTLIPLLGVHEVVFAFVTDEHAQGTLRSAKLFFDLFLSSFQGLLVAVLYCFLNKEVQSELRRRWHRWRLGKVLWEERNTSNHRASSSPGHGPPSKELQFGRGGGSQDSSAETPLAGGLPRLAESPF
From the text: as §1, §2

[1] = assay medium, read-out: hGLP1R EC50
[2] = assay medium, read-out: hGIPR EC50
[3] = assay medium, read-out: hGlucR EC50

SMILES: CCCCCCCCCCCCCCCC(=O)NCCCCCC(=O)NCCCC[C@H](NC(=O)[C@H](CO)NC(=O)[C@H](CC(=O)O)NC(=O)[C@H](CC(C)C)NC(=O)[C@H](Cc1ccc(O)cc1)NC(=O)[C@H](CCC(=O)O)NC(=O)[C@H](CO)NC(=O)[C@H](Cc1ccc(O)cc1)NC(=O)[C@H](CC(=O)O)NC(=O)[C@H](CO)NC(=O)[C@@H](NC(=O)[C@H](Cc1ccccc1)NC(=O)[C@@H](NC(=O)CNC(=O)[C@H](CCC(N)=O)NC(=O)CNC(=O)[C@@H](N)Cc1c[nH]cn1)[C@@H](C)O)[C@@H](C)O)C(=O)N[C@@H](CCCNC(=N)N)C(=O)N[C@@H](C)C(=O)N[C@@H](CCCNC(=N)N)C(=O)N[C@@H](CC(=O)O)C(=O)N[C@@H](Cc1ccccc1)C(=O)N[C@H](C(=O)N[C@@H](C)C(=O)N[C@@H](Cc1c[nH]c2ccccc12)C(=O)N[C@@H](CC(C)C)C(=O)N[C@@H](CCC(=O)O)C(=O)N[C@@H](CCCNC(=N)N)C(=O)NCC(=O)NCC(=O)O)C(C)C [g727] (H-HGQGTFTSDYSEYLDSK([Ahx-Palmitoyl])RARDFVAWLERGG-OH; N-terminus assumed)
- EC50 (Human GLP1R; [1]): 0.0263 nM
- EC50 (Human GIPr; [2]): 177 nM
- EC50 (Human GlucR; [3]): 0.218 nM

SMILES: CCCCCCCCCCCCCCCC(=O)N[C@@H](CCC(=O)NCCCC[C@H](NC(=O)[C@H](CO)NC(=O)[C@H](Cc1ccc(O)cc1)NC(=O)[C@H](CC(=O)O)NC(=O)[C@H](CO)NC(=O)[C@@H](NC(=O)[C@H](Cc1ccccc1)NC(=O)[C@@H](NC(=O)CNC(=O)[C@H](CCC(N)=O)NC(=O)[C@H](CO)NC(=O)[C@@H](N)Cc1c[nH]cn1)[C@@H](C)O)[C@@H](C)O)C(=O)N[C@@H](Cc1ccc(O)cc1)C(=O)N[C@@H](CC(C)C)C(=O)N[C@@H](CC(=O)O)C(=O)N[C@@H](CO)C(=O)N[C@@H](CCC(=O)O)C(=O)N[C@@H](CCCNC(=N)N)C(=O)N[C@@H](C)C(=O)N[C@@H](CCCNC(=N)N)C(=O)N[C@@H](CC(=O)O)C(=O)N[C@@H](Cc1ccccc1)C(=O)N[C@H](C(=O)N[C@@H](C)C(=O)N[C@@H](Cc1c[nH]c2ccccc12)C(=O)N[C@@H](CC(C)C)C(=O)N[C@H](C(=O)N[C@@H](C)C(=O)NCC(=O)NCC(N)=O)C(C)C)C(C)C)C(=O)O [g728] (H-HSQGTFTSDYSK([γGlu-Palmitoyl])YLDSERARDFVAWLVAGG-NH2; N-terminus assumed)
- EC50 (Human GLP1R; [1]): 0.169 nM
- EC50 (Human GIPr; [2]): 395 nM
- EC50 (Human GlucR; [3]): 2.44 nM

SMILES: CCCCCCCCCCCCCCCC(=O)N[C@@H](CCC(=O)NCCCC[C@H](NC(=O)[C@H](CCCCN)NC(=O)[C@H](CO)NC(=O)[C@H](Cc1ccc(O)cc1)NC(=O)[C@H](CC(=O)O)NC(=O)[C@H](CO)NC(=O)[C@@H](NC(=O)[C@H](Cc1ccccc1)NC(=O)[C@@H](NC(=O)CNC(=O)[C@H](CCC(N)=O)NC(=O)[C@H](CO)NC(=O)[C@@H](N)Cc1c[nH]cn1)[C@@H](C)O)[C@@H](C)O)C(=O)N[C@@H](CC(C)C)C(=O)N[C@@H](CC(=O)O)C(=O)N[C@@H](CO)C(=O)N[C@@H](CCC(=O)O)C(=O)N[C@@H](CCCNC(=N)N)C(=O)N[C@@H](C)C(=O)N[C@@H](CCC(N)=O)C(=O)N[C@@H](CC(=O)O)C(=O)N[C@@H](Cc1ccccc1)C(=O)N[C@H](C(=O)N[C@@H](CCC(N)=O)C(=O)N[C@@H](Cc1c[nH]c2ccccc12)C(=O)N[C@@H](CC(C)C)C(=O)N[C@H](C(=O)N[C@@H](C)C(=O)NCC(=O)NCC(N)=O)C(C)C)C(C)C)C(=O)O [g729] (H-HSQGTFTSDYSKK([γGlu-Palmitoyl])LDSERAQDFVQWLVAGG-NH2)
- EC50 (Human GLP1R; hGLP1R EC50, assay medium): 0.0729 nM
- EC50 (Human GIPr; hGIPR EC50, assay medium): 209 nM
- EC50 (Human GlucR; hGlucR EC50, assay medium): 0.0319 nM

SMILES: CCCCCCCCCCCCCCCC(=O)N[C@@H](CCC(=O)NCCCC[C@H](NC(=O)[C@H](Cc1ccc(O)cc1)NC(=O)[C@H](CCC(=O)O)NC(=O)[C@H](CO)NC(=O)[C@H](Cc1ccc(O)cc1)NC(=O)[C@H](CC(=O)O)NC(=O)[C@H](CO)NC(=O)[C@@H](NC(=O)[C@H](Cc1ccccc1)NC(=O)[C@@H](NC(=O)CNC(=O)[C@H](CCC(N)=O)NC(=O)[C@H](CO)NC(=O)[C@@H](N)Cc1c[nH]cn1)[C@@H](C)O)[C@@H](C)O)C(=O)N[C@@H](CC(=O)O)C(=O)N[C@@H](CO)C(=O)N[C@@H](CCCNC(=N)N)C(=O)N[C@@H](CCCNC(=N)N)C(=O)N[C@@H](C)C(=O)N[C@@H](CCC(N)=O)C(=O)N[C@@H](CC(=O)O)C(=O)N[C@@H](Cc1ccccc1)C(=O)N[C@H](C(=O)N[C@@H](CCC(N)=O)C(=O)N[C@@H](Cc1c[nH]c2ccccc12)C(=O)N[C@@H](CC(C)C)C(=O)N[C@H](C(=O)N[C@@H](C)C(=O)NCC(=O)NCC(N)=O)C(C)C)C(C)C)C(=O)O [g731] (H-HSQGTFTSDYSEYK([γGlu-Palmitoyl])DSRRAQDFVQWLVAGG-NH2; N-terminus assumed)
- EC50 (Human GLP1R; [1]): 0.0422 nM
- EC50 (Human GIPr; [2]): 40.7 nM
- EC50 (Human GlucR; [3]): 0.0277 nM

SMILES: CCCCCCCCCCCCCCCC(=O)N[C@@H](CCC(=O)NCCCC[C@H](NC(=O)[C@H](Cc1ccc(O)cc1)NC(=O)[C@H](CCCCN)NC(=O)[C@H](CO)NC(=O)[C@H](Cc1ccc(O)cc1)NC(=O)[C@H](CC(=O)O)NC(=O)[C@H](CO)NC(=O)[C@@H](NC(=O)[C@H](Cc1ccccc1)NC(=O)[C@@H](NC(=O)CNC(=O)[C@H](CCC(N)=O)NC(=O)CNC(=O)[C@@H](N)Cc1c[nH]cn1)[C@@H](C)O)[C@@H](C)O)C(=O)N[C@@H](CC(=O)O)C(=O)N[C@@H](CO)C(=O)N[C@@H](CCC(=O)O)C(=O)N[C@@H](CCCNC(=N)N)C(=O)N[C@@H](C)C(=O)N[C@@H](CCCNC(=N)N)C(=O)N[C@@H](CC(=O)O)C(=O)N[C@@H](Cc1ccccc1)C(=O)N[C@H](C(=O)N[C@@H](C)C(=O)N[C@@H](Cc1c[nH]c2ccccc12)C(=O)N[C@@H](CC(C)C)C(=O)N[C@H](C(=O)N[C@@H](C)C(=O)NCC(=O)NCC(N)=O)C(C)C)C(C)C)C(=O)O [g732] (H-HGQGTFTSDYSKYK([γGlu-Palmitoyl])DSERARDFVAWLVAGG-NH2; N-terminus assumed)
- EC50 (Human GLP1R; [1]): 0.0232 nM
- EC50 (Human GIPr; [2]): 29.4 nM
- EC50 (Human GlucR; [3]): 0.0396 nM

SMILES: CCCCCCCCCCCCCCCC(=O)N[C@@H](CCC(=O)NCCCC[C@H](NC(=O)[C@H](Cc1ccc(O)cc1)NC(=O)[C@H](CCCCN)NC(=O)[C@H](CO)NC(=O)[C@H](Cc1ccc(O)cc1)NC(=O)[C@H](CC(=O)O)NC(=O)[C@H](CO)NC(=O)[C@@H](NC(=O)[C@H](Cc1ccccc1)NC(=O)[C@@H](NC(=O)CNC(=O)[C@H](CCC(=O)O)NC(=O)CNC(=O)[C@@H](N)Cc1c[nH]cn1)[C@@H](C)O)[C@@H](C)O)C(=O)N[C@@H](CC(=O)O)C(=O)N[C@@H](CO)C(=O)N[C@@H](CCCNC(=N)N)C(=O)N[C@@H](CCCNC(=N)N)C(=O)N[C@@H](C)C(=O)N[C@@H](CCC(N)=O)C(=O)N[C@@H](CC(=O)O)C(=O)N[C@@H](Cc1ccccc1)C(=O)N[C@H](C(=O)N[C@@H](CCC(N)=O)C(=O)N[C@@H](Cc1c[nH]c2ccccc12)C(=O)N[C@@H](CC(C)C)C(=O)N[C@H](C(=O)N[C@@H](C)C(=O)NCC(=O)NCC(N)=O)C(C)C)C(C)C)C(=O)O [g733] (H-HGEGTFTSDYSKYK([γGlu-Palmitoyl])DSRRAQDFVQWLVAGG-NH2)
- EC50 (Human GLP1R; hGLP1R EC50, assay medium): 0.0231 nM
- EC50 (Human GIPr; hGIPR EC50, assay medium): 817 nM
- EC50 (Human GlucR; hGlucR EC50, assay medium): 62 nM

SMILES: CCCCCCCCCCCCCCCC(=O)NCCC(=O)NCCCC[C@H](NC(=O)[C@H](CO)NC(=O)[C@H](CC(=O)O)NC(=O)[C@H](CC(C)C)NC(=O)[C@H](Cc1ccc(O)cc1)NC(=O)[C@H](CCC(=O)O)NC(=O)[C@H](CO)NC(=O)[C@H](Cc1ccc(O)cc1)NC(=O)[C@H](CC(=O)O)NC(=O)[C@H](CO)NC(=O)[C@@H](NC(=O)[C@H](Cc1ccccc1)NC(=O)[C@@H](NC(=O)CNC(=O)[C@H](CCC(=O)O)NC(=O)[C@H](CO)NC(=O)[C@@H](N)Cc1c[nH]cn1)[C@@H](C)O)[C@@H](C)O)C(=O)N[C@@H](CCCNC(=N)N)C(=O)N[C@@H](C)C(=O)N[C@@H](CCCNC(=N)N)C(=O)N[C@@H](CC(=O)O)C(=O)N[C@@H](Cc1ccccc1)C(=O)N[C@H](C(=O)N[C@@H](C)C(=O)N[C@@H](Cc1c[nH]c2ccccc12)C(=O)N[C@@H](CC(C)C)C(=O)N[C@@H](CCC(=O)O)C(=O)N[C@@H](C)C(=O)NCC(=O)NCC(N)=O)C(C)C [g734] (H-HSEGTFTSDYSEYLDSK([βAla-Palmitoyl])RARDFVAWLEAGG-NH2; N-terminus assumed)
- EC50 (Human GLP1R; [1]): 0.0695 nM
- EC50 (Human GIPr; [2]): 1170 nM
- EC50 (Human GlucR; [3]): 82.8 nM

SMILES: CCCCCCCCCCCCCCCC(=O)N[C@@H](CCC(=O)NCCCC[C@H](NC(=O)CNC(=O)CNC(=O)[C@H](C)NC(=O)[C@H](CCC(=O)O)NC(=O)[C@H](CC(C)C)NC(=O)[C@H](Cc1c[nH]c2ccccc12)NC(=O)[C@H](CCC(N)=O)NC(=O)[C@@H](NC(=O)[C@H](Cc1ccccc1)NC(=O)[C@H](CC(=O)O)NC(=O)[C@H](CCC(N)=O)NC(=O)[C@H](C)NC(=O)[C@H](CCCNC(=N)N)NC(=O)[C@H](CCCNC(=N)N)NC(=O)[C@H](CO)NC(=O)[C@H](CC(=O)O)NC(=O)[C@H](CC(C)C)NC(=O)[C@H](Cc1ccc(O)cc1)NC(=O)[C@H](CCCCN)NC(=O)[C@H](CO)NC(=O)[C@H](Cc1ccc(O)cc1)NC(=O)[C@H](CC(=O)O)NC(=O)[C@H](CO)NC(=O)[C@@H](NC(=O)[C@H](Cc1ccccc1)NC(=O)[C@@H](NC(=O)CNC(=O)[C@H](CCC(N)=O)NC(=O)[C@H](CO)NC(=O)[C@@H](N)Cc1c[nH]cn1)[C@@H](C)O)[C@@H](C)O)C(C)C)C(N)=O)C(=O)O [g747]
- EC50 (Human GLP1R; [1]): 3.16 nM
- EC50 (Human GIPr; [2]): 1040 nM
- EC50 (Human GlucR; [3]): 0.0942 nM
